These results are taken from patent publication US12516056B2, “Compounds for inhibition of janus kinase 1” (MANKIND PHARMA LTD., priority 2019, dated 2026).

One assay addresses T1, Recombinant JAK1 (Homo sapiens, UniProt P23458).
T1 construct: purchased Carna Biosciences
As to the kind of experiment: JAK biochemical assay (LANCE Ultra TR-FRET), JAK1. Particulars: recombinant JAK1, TR-FRET; read-out: Biochemical Assay (μM) JAK1. A digest of the protocol: (§1)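 Kinase reactions ran in buffer of 50 mM HEPES pH 7.5 with 1 mM EGTA, 10 mM MgCl2, 2 mM DTT and 0.01% Tween-20, using recombinant enzyme. Phosphorylated ULight substrate was detected by TR-FRET, and compound effect expressed as % inhibition against vehicle.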
A general note: Time-resolved FRET reads energy transfer from a long-lived donor to a nearby acceptor.

The next assay deals with T2, Recombinant TYK2 (Homo sapiens, UniProt P29597).
T2 construct: purchased Carna Biosciences
T2 sequence (P29597 whole entry): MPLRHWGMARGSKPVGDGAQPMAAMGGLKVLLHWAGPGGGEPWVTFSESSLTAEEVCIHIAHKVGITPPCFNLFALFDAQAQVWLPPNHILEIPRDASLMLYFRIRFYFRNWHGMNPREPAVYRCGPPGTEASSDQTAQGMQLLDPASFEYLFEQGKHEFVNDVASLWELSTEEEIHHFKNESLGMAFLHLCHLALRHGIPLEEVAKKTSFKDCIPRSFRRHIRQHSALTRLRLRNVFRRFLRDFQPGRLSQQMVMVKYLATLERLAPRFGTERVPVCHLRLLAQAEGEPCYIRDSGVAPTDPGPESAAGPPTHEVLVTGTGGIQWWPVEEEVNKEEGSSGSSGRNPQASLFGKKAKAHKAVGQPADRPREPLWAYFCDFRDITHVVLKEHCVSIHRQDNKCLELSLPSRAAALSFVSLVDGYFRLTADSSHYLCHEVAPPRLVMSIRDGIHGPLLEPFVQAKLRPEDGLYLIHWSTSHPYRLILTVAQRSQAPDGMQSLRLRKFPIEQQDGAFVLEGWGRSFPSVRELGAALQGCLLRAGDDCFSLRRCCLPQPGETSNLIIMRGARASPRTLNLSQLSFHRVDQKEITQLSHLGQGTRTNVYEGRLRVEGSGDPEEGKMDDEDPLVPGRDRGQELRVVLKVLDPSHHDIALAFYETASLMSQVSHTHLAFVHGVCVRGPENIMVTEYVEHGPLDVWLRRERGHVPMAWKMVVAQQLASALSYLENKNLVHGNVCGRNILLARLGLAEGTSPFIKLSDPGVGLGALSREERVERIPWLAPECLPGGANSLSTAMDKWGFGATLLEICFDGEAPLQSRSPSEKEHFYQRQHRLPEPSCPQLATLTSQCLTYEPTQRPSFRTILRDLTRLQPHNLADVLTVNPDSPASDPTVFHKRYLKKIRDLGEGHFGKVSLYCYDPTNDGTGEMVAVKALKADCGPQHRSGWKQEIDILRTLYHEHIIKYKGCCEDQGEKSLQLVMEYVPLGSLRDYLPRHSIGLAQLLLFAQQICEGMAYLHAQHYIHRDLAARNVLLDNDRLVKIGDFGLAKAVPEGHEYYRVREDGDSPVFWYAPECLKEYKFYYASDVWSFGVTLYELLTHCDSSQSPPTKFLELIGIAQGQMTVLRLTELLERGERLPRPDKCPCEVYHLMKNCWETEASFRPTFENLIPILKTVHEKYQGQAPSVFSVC
As to the kind of experiment: JAK biochemical assay (LANCE Ultra TR-FRET), TYK2. Particulars: recombinant TYK2, TR-FRET; read-out: Biochemical Assay (μM) TYK2. A digest of the protocol: as §1

The next assay addresses T3, Recombinant JAK2 (Homo sapiens, UniProt O60674).
T3 construct: purchased Carna Biosciences
As to the kind of experiment: JAK biochemical assay (LANCE Ultra TR-FRET), JAK2. Particulars: recombinant JAK2, TR-FRET; read-out: Biochemical Assay (μM) JAK2. A digest of the protocol: as §1

For assay [1], the system named is STAT5 phosphorylation by IL-2 in HT-2 cells. As to the kind of experiment: STAT5 phosphorylation by IL-2 in HT-2 cells (HTRF). Particulars: IL-2 50 U/ml, pSTAT5 HTRF, read-out: Cell Based Assay (μM) HT-2/IL-2/pSTAT5. In kind it is cell-based. On the procedure:
HT-2 cells were starved […] in RPMI phenol red with 10% fetal bovine serum for 4 hours in CO2 incubator maintained at 37° c. Compounds were diluted in DMSO and added to 96 well plate containing a final density of 1,20,000 cells per well. Cells and compounds are incubated for 30 minutes in CO2 incubator maintained at 37° C. and final DMSO concentration in cell based assay was 0.2%. Human recombinant cytokine, IL-2 (50 U/ml) was added to the plate containing cells and compound and incubated for 20 minutes with gentle tapping/shaking at every 5 minutes once. Compound mediated effects on STAT5 phosphorylation was measured in the lysates prepared by using CISBIO pSTAT5 detection kit by HTRF method. Background signal obtained from cells which were not activated with cytokines, was subtracted from vehicle controls and compound treated wells.

In assay [2] the test system is STAT3 phosphorylation by IL-6 in TF-1 cells. As to the kind of experiment: JAK cellular assay: STAT3 phosphorylation by IL-6 in TF-1 cells (HTRF). Particulars: Homo sapiens, TF-1, TF-1 cells, IL-6 30 ng/ml, pSTAT3 HTRF; read-out: Cell Based Assay (μM) TF-1/IL-6/pSTAT3. In kind it is cell-based. The essentials:
(§2)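 TF-1 cells starved overnight in low-serum OptiMEM, then 120,000/well in RPMI, preincubated with compound 30 min at 37 °C (0.2% DMSO final). Stimulation 20 min with IL-6 30 ng/ml (pSTAT3) or GMCSF 5 ng/ml (pSTAT5); lysate phospho-STAT by HTRF, unstimulated background subtracted.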

Another assay concerns the target T4, Recombinant JAK3 (Homo sapiens, UniProt P52333).
T4 construct: purchased Carna Biosciences
T4 sequence (P52333 1-1124): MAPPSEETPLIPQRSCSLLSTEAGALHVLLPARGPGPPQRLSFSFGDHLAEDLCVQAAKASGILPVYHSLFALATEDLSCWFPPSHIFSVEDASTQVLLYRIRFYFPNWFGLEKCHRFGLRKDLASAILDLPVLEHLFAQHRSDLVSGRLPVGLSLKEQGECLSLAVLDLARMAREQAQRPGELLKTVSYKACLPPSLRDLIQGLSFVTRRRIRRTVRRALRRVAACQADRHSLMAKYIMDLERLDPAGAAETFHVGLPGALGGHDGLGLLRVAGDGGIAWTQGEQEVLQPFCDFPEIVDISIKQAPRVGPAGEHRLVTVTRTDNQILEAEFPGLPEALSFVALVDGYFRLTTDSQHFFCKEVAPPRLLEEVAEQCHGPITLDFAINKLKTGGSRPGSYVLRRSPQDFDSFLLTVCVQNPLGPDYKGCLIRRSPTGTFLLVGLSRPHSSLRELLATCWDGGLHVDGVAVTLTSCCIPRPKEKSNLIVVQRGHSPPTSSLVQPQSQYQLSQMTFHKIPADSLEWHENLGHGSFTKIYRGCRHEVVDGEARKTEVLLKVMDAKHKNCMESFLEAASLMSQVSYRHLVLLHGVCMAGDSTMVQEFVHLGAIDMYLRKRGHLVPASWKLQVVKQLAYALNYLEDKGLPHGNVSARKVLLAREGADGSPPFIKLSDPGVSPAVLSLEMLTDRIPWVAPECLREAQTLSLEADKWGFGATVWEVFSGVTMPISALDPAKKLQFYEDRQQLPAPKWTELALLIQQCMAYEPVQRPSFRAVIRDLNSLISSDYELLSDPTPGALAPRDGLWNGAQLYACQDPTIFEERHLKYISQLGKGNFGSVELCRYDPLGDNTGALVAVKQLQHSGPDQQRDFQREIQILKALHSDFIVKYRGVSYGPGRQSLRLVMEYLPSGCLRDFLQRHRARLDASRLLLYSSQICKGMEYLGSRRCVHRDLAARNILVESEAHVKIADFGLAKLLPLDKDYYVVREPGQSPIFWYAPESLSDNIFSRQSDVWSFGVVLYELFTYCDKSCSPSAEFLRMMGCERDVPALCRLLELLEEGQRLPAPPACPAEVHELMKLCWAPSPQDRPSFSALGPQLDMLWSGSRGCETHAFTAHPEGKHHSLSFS
As to the kind of experiment: JAK biochemical assay (LANCE Ultra TR-FRET), JAK3. As to conditions: recombinant JAK3, TR-FRET; read-out: Biochemical Assay (μM) JAK3. A digest of the protocol: as §1

Assay [3] concerns STAT5 phosphorylation by GMCSF in TF-1 cells. As to the kind of experiment: JAK cellular assay: STAT5 phosphorylation by GMCSF in TF-1 cells (HTRF). Format: cell-based. Particulars: Homo sapiens; TF-1 cells, GMCSF 5 ng/ml, pSTAT5 HTRF; read-out: Cell Based Assay (μM) TF-1/GMCSF/pSTAT5. A digest of the protocol: as §2

Read-outs that look alike come from different tables or passages of the source.

T3 sequence (O60674 whole entry): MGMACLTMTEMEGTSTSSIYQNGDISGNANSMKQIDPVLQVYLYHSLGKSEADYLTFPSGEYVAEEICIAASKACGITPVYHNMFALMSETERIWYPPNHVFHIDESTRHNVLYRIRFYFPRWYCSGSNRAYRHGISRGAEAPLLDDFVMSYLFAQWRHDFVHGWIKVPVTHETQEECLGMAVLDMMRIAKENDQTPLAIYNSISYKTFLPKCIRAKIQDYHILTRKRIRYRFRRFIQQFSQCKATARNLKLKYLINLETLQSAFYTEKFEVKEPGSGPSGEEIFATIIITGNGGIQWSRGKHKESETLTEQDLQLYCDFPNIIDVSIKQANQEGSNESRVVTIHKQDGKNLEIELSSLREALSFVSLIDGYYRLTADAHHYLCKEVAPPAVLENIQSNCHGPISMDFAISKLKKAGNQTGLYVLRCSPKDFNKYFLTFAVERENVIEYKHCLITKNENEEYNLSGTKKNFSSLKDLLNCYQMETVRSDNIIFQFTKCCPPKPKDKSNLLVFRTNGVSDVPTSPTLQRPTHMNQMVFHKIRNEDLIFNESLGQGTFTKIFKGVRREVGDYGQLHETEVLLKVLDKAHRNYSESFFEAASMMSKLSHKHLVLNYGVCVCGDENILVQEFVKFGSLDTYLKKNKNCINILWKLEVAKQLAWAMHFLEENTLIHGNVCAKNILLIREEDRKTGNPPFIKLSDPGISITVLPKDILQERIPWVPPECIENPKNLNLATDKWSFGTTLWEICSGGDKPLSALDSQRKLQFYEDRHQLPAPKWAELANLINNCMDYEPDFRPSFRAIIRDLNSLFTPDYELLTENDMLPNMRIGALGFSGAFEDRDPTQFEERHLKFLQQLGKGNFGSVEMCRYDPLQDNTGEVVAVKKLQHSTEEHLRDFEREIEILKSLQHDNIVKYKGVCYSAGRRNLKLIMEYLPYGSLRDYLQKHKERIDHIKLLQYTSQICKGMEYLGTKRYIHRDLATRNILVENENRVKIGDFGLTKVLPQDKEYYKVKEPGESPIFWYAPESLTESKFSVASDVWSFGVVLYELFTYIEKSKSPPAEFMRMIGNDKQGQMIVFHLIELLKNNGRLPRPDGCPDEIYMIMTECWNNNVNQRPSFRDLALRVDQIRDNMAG
T1 sequence (P23458 whole entry): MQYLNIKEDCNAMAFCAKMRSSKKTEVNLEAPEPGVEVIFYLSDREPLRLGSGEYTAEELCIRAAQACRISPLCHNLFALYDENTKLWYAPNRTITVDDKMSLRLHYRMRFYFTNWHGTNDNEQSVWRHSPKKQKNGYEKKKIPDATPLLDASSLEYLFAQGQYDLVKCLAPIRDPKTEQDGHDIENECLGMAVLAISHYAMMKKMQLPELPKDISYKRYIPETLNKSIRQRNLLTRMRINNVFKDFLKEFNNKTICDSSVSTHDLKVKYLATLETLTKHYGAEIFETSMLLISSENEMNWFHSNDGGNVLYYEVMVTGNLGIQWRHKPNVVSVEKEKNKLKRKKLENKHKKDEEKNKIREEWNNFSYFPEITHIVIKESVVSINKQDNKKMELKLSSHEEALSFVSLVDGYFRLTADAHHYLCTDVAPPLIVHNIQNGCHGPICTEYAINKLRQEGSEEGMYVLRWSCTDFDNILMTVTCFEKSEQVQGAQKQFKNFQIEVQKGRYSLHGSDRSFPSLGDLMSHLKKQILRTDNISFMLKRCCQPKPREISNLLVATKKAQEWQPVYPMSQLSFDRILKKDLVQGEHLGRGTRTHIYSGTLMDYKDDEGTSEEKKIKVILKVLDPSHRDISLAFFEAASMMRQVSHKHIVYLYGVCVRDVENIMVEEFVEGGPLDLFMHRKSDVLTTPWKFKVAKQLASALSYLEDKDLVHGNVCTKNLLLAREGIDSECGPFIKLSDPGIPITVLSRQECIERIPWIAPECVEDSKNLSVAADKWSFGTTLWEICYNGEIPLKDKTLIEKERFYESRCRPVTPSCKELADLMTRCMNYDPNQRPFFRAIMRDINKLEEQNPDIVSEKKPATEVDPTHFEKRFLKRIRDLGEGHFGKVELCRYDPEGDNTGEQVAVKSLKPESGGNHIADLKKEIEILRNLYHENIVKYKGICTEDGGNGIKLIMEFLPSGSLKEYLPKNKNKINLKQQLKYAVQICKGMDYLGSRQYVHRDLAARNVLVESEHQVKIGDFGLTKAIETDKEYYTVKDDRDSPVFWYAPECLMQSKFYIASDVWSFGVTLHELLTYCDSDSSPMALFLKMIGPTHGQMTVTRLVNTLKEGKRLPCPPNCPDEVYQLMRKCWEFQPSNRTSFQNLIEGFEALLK

`CNCCC(c1ccc(-n2cc(-c3ccnc4[nH]cnc34)cn2)nc1)C(F)(F)F` (stereo not shown) [Example 1152, 3-(6-(4-(3H-imidazo[4,5-b]pyridin-7-yl)-1H-pyrazol-1-yl)pyridin-3-yl)-4,4,4-trifluoro-N-methylbutan-1-amine]: the IC50 at Recombinant JAK1 was under 0.1 µM; on Recombinant TYK2, over 0.5 µM; at Recombinant JAK2 it was under 0.1 µM; in assay [1] (HT-2 cells), over 0.1 µM; in assay [2], over 0.1 µM; on Recombinant JAK3, under 0.1 µM.
For `O=C(NCCC(c1ccc(-n2cc(-c3ccnc4[nH]cnc34)cn2)nc1)C(F)(F)F)C1CC1` (stereo not shown) [Example 1149, N-(3-(6-(4-(3H-imidazo[4,5-b]pyridin-7-yl)-1H-pyrazol-1-yl)pyridin-3-yl)-4,4,4-trifluorobutyl)cyclopropanecarboxamide], the IC50 at Recombinant JAK1 was under 0.1 µM; on Recombinant TYK2, over 1 µM; at Recombinant JAK2, over 0.1 µM; in assay [1] (HT2, HT-2 cells), over 0.5 µM; in assay [2] it was over 0.5 µM; on Recombinant JAK3 it was under 0.1 µM.
On to `CC(=O)N1CC(C(O)(c2ccc(-n3cc(-c4ccnc5[nH]cnc45)cn3)nc2)C(F)(F)F)C1` (stereo not shown) [Example 1236, 1-(3-(1-(6-(4-(3H-imidazo[4,5-b]pyridin-7-yl)-1H-pyrazol-1-yl)pyridin-3-yl)-2,2,2-trifluoro-1-hydroxyethyl)azetidin-1-yl)ethanone], for which the IC50 on Recombinant TYK2 is over 0.1 µM; on Recombinant JAK2 it was over 0.03 µM; in assay [1] (HT2, HT-2 cells) it was over 0.75 µM; in assay [2] it was over 1 µM; at Recombinant JAK3, over 0.03 µM.
In the case of `CC(C)N1CCC([C@](O)(c2ccc(-n3cc(-c4ccnc5[nH]cnc45)cn3)cc2)C(F)(F)F)C1` (stereo partly drawn) [Example 1251, (S)-1-(4-(4-(3H-imidazo[4,5-b]pyridin-7-yl)-1H-pyrazol-1-yl)phenyl)-2,2,2-trifluoro-1-(1-isopropylpyrrolidin-3-yl)ethanol], the IC50 on Recombinant JAK1 was under 0.1 µM; at Recombinant TYK2, over 0.5 µM; at Recombinant JAK2, under 0.1 µM; in assay [1] (HT2, HT-2 cells), over 2 µM; in assay [2], 1 µM; on Recombinant JAK3, under 0.1 µM.
With `CNC(=O)CCC(c1ccc(-n2cc(-c3ccnc4[nH]cnc34)cn2)nc1)C(F)(F)F` (stereo not shown) [Example 1148, 4-(6-(4-(3H-imidazo[4,5-b]pyridin-7-yl)-1H-pyrazol-1-yl)pyridin-3-yl)-5,5,5-trifluoro-N-methylpentanamide], the IC50 is under 0.1 µM at Recombinant JAK1; over 1 µM at Recombinant TYK2; under 0.1 µM on Recombinant JAK2; over 1 µM in assay [1] (HT2, HT-2 cells); over 0.5 µM in assay [2]; under 0.1 µM at Recombinant JAK3.
`N#CC(C(=O)NCC(F)(F)F)c1ccc(-n2cc(-c3ccnc4[nH]cnc34)cn2)nc1` (stereo not shown) [Example 1168, 2-(6-(4-(3H-imidazo[4,5-b]pyridin-7-yl)-1H-pyrazol-1-yl)pyridin-3-yl)-2-cyano-N-(2,2,2-trifluoroethyl)acetamide]: the IC50 was over 0.1 µM on Recombinant JAK1; over 1 µM on Recombinant TYK2; over 0.5 µM on Recombinant JAK2; over 1 µM in assay [1] (HT2, HT-2 cells); over 1 µM in assay [2]; over 0.1 µM at Recombinant JAK3.
`OC(CN1CCOCC1)(c1ccc(-n2cc(-c3ccnc4[nH]cnc34)cn2)nc1)C(F)(F)F` (stereo not shown) [Example 1229, 2-(6-(4-(3H-imidazo[4,5-b]pyridin-7-yl)-1H-pyrazol-1-yl)pyridin-3-yl)-1,1,1-trifluoro-3-morpholinopropan-2-ol]: the IC50 is under 0.1 µM on Recombinant JAK1; over 1 µM at Recombinant TYK2; under 0.1 µM at Recombinant JAK2; over 1 µM in assay [1] (HT2, HT-2 cells); over 1 µM in assay [2]; under 0.1 µM at Recombinant JAK3.
As for `O=S(=O)(CC[C@@H](c1ccc(-n2cc(-c3ccnc4[nH]cnc34)cn2)nc1)C(F)(F)F)C1CC1` [Example 1216, 7-(1-(5-((S)-4-(cyclopropylsulfonyl)-1,1,1-trifluorobutan-2-yl)pyridin-2-yl)-1H-pyrazol-4-yl)-3H-imidazo[4,5-b]pyridine], the IC50 at Recombinant JAK1 was under 0.1 µM; on Recombinant TYK2, over 0.5 µM; on Recombinant JAK2, under 0.1 µM; in assay [1] (HT2, HT-2 cells), 0.51 µM; in assay [2] it was 0.28 µM; on Recombinant JAK3, under 0.1 µM.
`OC(CCN1CCOCC1)(c1ccc(-n2cc(-c3ccnc4[nH]cnc34)cn2)nc1)C(F)(F)F` (stereo not shown) [Example 1230, 2-(6-(4-(3H-imidazo[4,5-b]pyridin-7-yl)-1H-pyrazol-1-yl)pyridin-3-yl)-1,1,1-trifluoro-4-morpholinobutan-2-ol]: the IC50 on Recombinant JAK1 is under 0.1 µM; at Recombinant TYK2, over 0.5 µM; at Recombinant JAK2, under 0.1 µM; in assay [1] (HT2, HT-2 cells), over 0.5 µM; in assay [2], over 0.5 µM; on Recombinant JAK3 it was under 0.1 µM.
Consider `N#CCCC(c1ccc(-n2cc(-c3ccnc4[nH]cnc34)cn2)nc1)C(F)(F)F` (stereo not shown) [Example 1156, 4-(6-(4-(3H-imidazo[4,5-b]pyridin-7-yl)-1H-pyrazol-1-yl)pyridin-3-yl)-5,5,5-trifluoropentanenitrile], for which the IC50 on Recombinant JAK1 was over 0.1 µM; on Recombinant TYK2, over 1 µM; at Recombinant JAK2, over 0.5 µM; in assay [1] (HT2, HT-2 cells), over 1 µM; in assay [2], over 0.5 µM; at Recombinant JAK3, over 0.5 µM.
Turning to `CC(C)C(=O)NCCC(c1ccc(-n2cc(-c3ccnc4[nH]cnc34)cn2)nc1)C(F)(F)F` (stereo not shown) [Example 1247, N-(3-(6-(4-(3H-imidazo[4,5-b]pyridin-7-yl)-1H-pyrazol-1-yl)pyridin-3-yl)-4,4,4-trifluorobutyl)isobutyramide], the IC50 is 0.19 µM at Recombinant TYK2; 0.06 µM at Recombinant JAK2; over 1 µM in assay [1] (HT2, HT-2 cells); over 1 µM in assay [2]; 0.023 µM on Recombinant JAK3.
Take `N#CC(c1ccc(-n2cc(-c3ccnc4[nH]cnc34)cn2)nc1)N1CCS(=O)(=O)CC1` (stereo not shown) [Example 1113, 2-(6-(4-(3H-imidazo[4,5-b]pyridin-7-yl)-1H-pyrazol-1-yl)pyridin-3-yl)-2-(1,1-dioxidothiomorpholino)acetonitrile]: the IC50 was over 10 µM in assay [3]; over 1 µM at Recombinant JAK1; over 1 µM at Recombinant TYK2; over 0.1 µM at Recombinant JAK2; over 10 µM in assay [2]; over 0.5 µM at Recombinant JAK3.
